Data on one compound can be found in publication doi:10.1101/2023.07.31.551370, “A diversified, widespread microbial gene cluster encodes homologs of methyltransferases involved in methanogenesis” (bioRxiv, 2023).

In test [1] the target is T1, ClMlp2.
T1 construct: gene mlp2; recombinant ClMlp2
The test is described as follows: UV-visible spectroscopy, loss of methylcob(III)alamin absorbance at […] nm, steady-state kinetics. The class given is biochemical, Clostridium ljungdahlii. Particulars: co-substrate methylcob(III)alamin (non-physiological methyl donor); strictly anoxic nitrogen atmosphere; reverse of the hypothesized physiological reaction; fit with substrate inhibition; substrate in.

The test system of test [2] is T1, ClMlp2. The test is described as above. The class given is biochemical, Clostridium ljungdahlii. Particulars: co-substrate methylcob(III)alamin (non-physiological methyl donor); strictly anoxic nitrogen atmosphere; reverse of the hypothesized physiological reaction; fit with substrate inhibition; read-out: apparent KM.

In general, Km refers to the concentration of substrate that gives half-maximal velocity.

Take `[SeH2]` [selenide]: the “KI (selenide substrate inhibition constant)” value on ClMlp2 [1] came out at 3.83 mM. The Km in the test on ClMlp2 [2] stood at 79.8 µM.
